Data as given in US20120046357A1, “Benzamide and Napthamide Derivatives Inhibiting Nuclear Factor-Kappa (B) - (NK-kB)” (Profectus Biosciences, Inc., priority 2009, published 2012).
Where a name gives a salt, the structure may show the parent alone. Read-outs that look alike come from different tables or passages of the source.

Experiments:
[1] = system: IL-6 release from RAW264.7 cells; assay: LPS-stimulated IL-6 release from RAW264.7 cells (ELISA); assay type: cell-based, mouse; conditions: 2 h pretreatment, 1 μg/mL LPS 20-24 h, read-out: RAW 264.7 IL-6 release EC50
Procedure: (§1) RAW 264.7 cells were seeded at 4×10^4 cells per well n complete growth medium in 96 well white TC plates with clear bottoms one day prior to the assay. The next day the cells were washed once and 100 μL fresh growth media was added. Cells were pretreated with 0.5 μL from a 6 point 200× dilution series of the test compounds in DMSO for 2 hours. Following pretreatment with the drugs, the inflammatory response was induced by adding 5 μL of a 20 μg/mL solution of LPS (Sigma). The cells were incubated in the presence of the drugs and 1 μg/mL LPS for another 20-24 hours. Typically after treatment the total DMSO was […] of the culture volume and the final concentrations of the compounds were approximately: 40, 20, 10, 1, 0.2 and 0 μM depending on the MW of each compound. Modified dilution series were prepared as needed to get adequate dose response curves without changing the % DMSO. Samples were run in duplicate or triplicate and included DMSO treated control wells with and without LPS stimulation. Drugs with a known activity such as Parthenolide or DHMEQ were run as experimental controls. After 20-24 hours LPS activation, the media supernatant was collected from the cells and replaced with fresh media. The supernatant samples were cleared by centrifugation at 1,000×g for 5 minutes, transferred to fresh storage plates, and stored frozen at −30° C.
After determining the appropriate supernatant dilutions experimentally, mIL-6 levels in the supernatants were quantified using Quantikine™ mouse IL-6 immunoassay (R&D Systems) according to the manufacturer's protocol. […] diluted in Calibrator Diluent were added to 50 μL of Assay Diluent in microplate wells pre-coated with an anti-mouse IL-6 capture antibody. Controls included a calibrated positive IL-6 control sample, non-specific binding (NSB) wells containing Calibrator Diluent but no IL-6, and a recombinant mouse IL-6 standard dilution series (10-1000 pg/mL). The plates were incubated at room temperature for 2 hours with shaking and then washed 5 times with 400 μL 1× Wash Buffer. […] anti-mouse IL-6 antibody was added to each well to detect IL-6 captured on the plate. The plates were incubated at room temperature for 2 hours and then washed 5 times with 400 μL 1× Wash Buffer. Equal volumes of Color Reagents A and B were mixed and 100 μL of this HRP Substrate Solution was added to each well on the plate. The blue color was allowed to develop for 30 minutes and then the reaction was stopped using 100 μL of Stop Solution yielding a yellow color. Absorbance at 450 nm with a reference wavelength subtracted at 595 nm was recorded using a Becton-Dickinson DTX 880 Multimode Detector.
(§2) The concentration of mIL-6 in the unknown samples was determined from a curve-fit of the mIL-6 standard absorbance data and multiplying by the dilution factor. The maximum activity achieved in the absence of the inhibitor (DMSO+LPS treated wells) was arbitrarily given a value of 100%; likewise the minimum activity in the absence of the stimulant (no LPS) was assigned a value of 0%. Inhibition of the amount of mIL-6 cytokine released in the drug treated wells was calculated relative to the maximum activation in the DMSO+LPS treated control wells (ie. % inhibition=100−(drug+LPS treated)/(DMSO+LPS treated)). Dose response curves were used to determine the effective concentration to inhibit 50% of the mIL-6 cytokine released (IC50) by means of a SigmaPlot macro which fits a sigmoidal dose-response curve to the (log 10) μM concentration versus % inhibition. […] This technique yields an objective value for the IC50 provided that 50% inhibition was approached at the concentrations tested. FIG. 5 illustrates the effect of the compound of Example 10 on inhibiting IL-6 release.

[2] = system: PGE2 release from RAW264.7 cells; assay: LPS-stimulated PGE2 release from RAW264.7 cells (immunoassay); assay type: cell-based; conditions: Mus musculus, 2 h pretreatment, 1 μg/mL LPS 20-24 h, read-out: RAW 264.7 PGE2 release EC50
Procedure: as §1
After determining the appropriate supernatant dilutions experimentally, PGE2 levels in the supernatants were quantified using Parameter™ PGE2 Immunoassay (R&D Systems) according to the manufacturer's protocol. 100 µL of the supernatants diluted in Calibrator Diluent and 50 μL of a primary monoclonal anti-PGE2 antibody were added to the microplate wells pre-coated with a goat anti-mouse Ig capture antibody. Then 50 μL of an HRP conjugated PGE2 competitor was added. Controls included non-specific binding (NSB) wells containing Calibrator Diluent but no primary antibody and a recombinant PGE2 standard dilution series (40-5000 pg/mL). The plates were incubated at room temperature for 2 hours with shaking and then washed 5 times with 400 μL 1× Wash Buffer. Equal volumes of Color Reagents A and B were mixed and 200 μL of this HRP Substrate Solution was added to each well on the plate. The blue color was allowed to develop for 30 minutes and then the reaction was stopped using 50 μL of Stop Solution yielding a yellow color. Absorbance at 450 nm with a reference at 595 nm was recorded using a […] DTX 880 Multimode Detector.
as §2, with “PGE2” for “mIL-6”, “LPS treated wells)” for “LPS)”, “PGE2” for “mIL-6 cytokine”, “(i.e.,” for “(ie.”, “versus” for “versus %”, “tested.” for “tested. FIG. 5 illustrates the effect of the compound of Example 10 on inhibiting IL-6 release.”

[3] = system: RPMI8226 multiple myeloma cells; assay: Multiple myeloma growth inhibition (CellTiter-Glo), RPMI 8226; assay type: cell-based; conditions: 48 hours, FIG. 6
Procedure: (§3) Cryogenically stored RPMI 8226 and U266B1 cells (ATCC, Manassas, Va.) were thawed and cultured according to the vendor's recommendations. Cells were plated in 96-well white-wall tissue culture plates at a concentration of 2×10^5 cells/ml (0.1 ml per well) and incubated overnight at 37° C. in a humidified 5% CO2 atmosphere. Compounds were added to each well at the indicated concentrations (0.5 μl of 200×DMSO stock) and incubated with the cells for 48 hours. Cell viability was detected by adding 100 μl CellTiter-Glo Reagent (Promega, Madison, Wis.) to each well, mixing with pipette, and incubating at room temperature for 10 minutes. Luminescence was read with a DTX 880 Multimode Detector (Beckman Coulter, Fullerton, Calif.). Data was analyzed with SigmaPlot 11 (Systat Software, San Jose, Calif.) software.

[4] = system: U266B1 multiple myeloma cells; assay: Multiple myeloma growth inhibition (CellTiter-Glo), U266B1; assay type: cell-based; conditions: 48 hours, FIG. 7
Procedure: as §3

[5] = Mus musculus, RAW264.7, RAW264.7 cells

| EC50 [1, 5] | EC50 [2] | SMILES | further results |
| --- | --- | --- | --- |
| 3100 nM | 13300 nM | O=C(NC1=CC(=O)C2OC2C1O)c1ccc(C(F)(F)F)cc1O (racemic) [Example 1, 2-hydroxy-N-(2-hydroxy-5-oxo-7-oxabicyclo[4.1.0]hept-3-en-3-yl)-4-(trifluoromethyl)benzamide] | – |
| 1300 nM | 5900 nM | O=C(NC1=CC(=O)C2OC2C1O)c1ccc(Cl)cc1O (racemic) [Example 2, (±)-4-chloro-2-hydroxy-N-(2-hydroxy-5-oxo-7-oxabicyclo[4.1.0]hept-3-en-3-yl)benzamide] | – |
| 480 nM | 10000 nM | Cc1ccc(C(=O)NC2=CC(=O)C3OC3C2O)c(O)c1 (racemic) [Example 3, (±)-2-hydroxy-N-(2-hydroxy-5-oxo-7-oxabicyclo[4.1.0]hept-3-en-3-yl)-4-methylbenzamide] | – |
| 760 nM | 2600 nM | Cc1cccc(C(=O)NC2=CC(=O)C3OC3C2O)c1O (racemic) [Example 4, (±)-2-hydroxy-N-(2-hydroxy-5-oxo-7-oxabicyclo[4.1.0]hept-3-en-3-yl)-3-methylbenzamide] | – |
| 420 nM | 5700 nM | COc1ccc(C(=O)NC2=CC(=O)C3OC3C2O)c(O)c1 (racemic) [Example 5, (±)-2-hydroxy-N-(2-hydroxy-5-oxo-7-oxabicyclo[4.1.0]hept-3-en-3-yl)-4-methoxybenzamide] | – |
| 2500 nM | 7200 nM | O=C(NC1=CC(=O)C2OC2C1O)c1cccc(Cl)c1O (racemic) [Example 6, (±)-3-chloro-2-hydroxy-N-(2-hydroxy-5-oxo-7-oxabicyclo[4.1.0]hept-3-en-3-yl)benzamide] | – |
| 1400 nM | 4600 nM | O=C(NC1=CC(=O)C2OC2C1O)c1cc2ccccc2cc1O (racemic) [Example 7, (±)-3-hydroxy-N-(2-hydroxy-5-oxo-7-oxabicyclo[4.1.0]hept-3-en-3-yl)-2-naphthamide] | – |
| 300 nM | – | O=C(NC1=CC(=O)C2OC2C1O)c1ccc2ccccc2c1O (racemic) [Example 8, (±)-1-hydroxy-N-(2-hydroxy-5-oxo-7-oxabicyclo[4.1.0]hept-3-en-3-yl)-2-naphthamide] | – |
| 6500 nM | – | O=C(NC1=CC(=O)C2OC2C1O)c1cc(Br)ccc1O (racemic) [Example 9, (±)-5-bromo-2-hydroxy-N-(2-hydroxy-5-oxo-7-oxabicyclo[4.1.0]hept-3-en-3-yl)benzamide] | – |
| 440 nM | – | CN(C)c1ccc(C(=O)NC2=CC(=O)C3OC3C2O)c(O)c1 (racemic) [Example 10, (±)-4-(dimethylamino)-2-hydroxy-N-(2-hydroxy-5-oxo-7-oxabicyclo[4.1.0]hept-3-en-3-yl)benzamide] | growth inhibition of RPMI8226 multiple myeloma cells [3]: growth inhibition; growth inhibition of U266B1 multiple myeloma cells [4]: growth inhibition |
| 850 nM | – | COc1ccc2cc(O)c(C(=O)NC3=CC(=O)C4OC4C3O)cc2c1 (racemic) [Example 11, (±)-3-hydroxy-N-(2-hydroxy-5-oxo-7-oxabicyclo[4.1.0]hept-3-en-3-yl)-7-methoxy-2-naphthamide] | – |
| 220 nM | – | O=C(NC1=CC(=O)C2OC2C1O)c1cc2cc(Br)ccc2cc1O (racemic) [Example 15, (±)-7-bromo-3-hydroxy-N-(2-hydroxy-5-oxo-7-oxabicyclo[4.1.0]hept-3-en-3-yl)-2-naphthamide] | – |
| 270 nM | – | COc1c(C(=O)NC2=CC(=O)C3OC3C2O)ccc(F)c1F (racemic) [Example 16, (±)-3,4-difluoro-N-(2-hydroxy-5-oxo-7-oxabicyclo[4.1.0]hept-3-en-3-yl)-2-methoxybenzamide] | – |
| 480 nM | – | Cc1ccc(C(C)C)c(C(=O)NC2=CC(=O)C3OC3C2O)c1O (racemic) [Example 17, (±)-2-hydroxy-N-(2-hydroxy-5-oxo-7-oxabicyclo[4.1.0]hept-3-en-3-yl)-6-isopropyl-3-methylbenzamide] | – |
| – | – | CN(C)c1ccc(C(=O)NC2=CC(=O)C3OC3C2O)c(O)c1 (racemic) [Example 19, (±)-4-(dimethylamino)-2-hydroxy-N-(2-hydroxy-5-oxo-7-oxabicyclo[4.1.0]hept-3-en-3-yl)benzamide trifluoroacetate] | EC50 ([1]; RAW264.7 cells, trifluoroacetate): 740 nM |
| 240 nM | – | COc1cc(N(C)C)ccc1C(=O)NC1=CC(=O)C2OC2C1O (racemic) [Example 20, (±)-4-(dimethylamino)-N-(2-hydroxy-5-oxo-7-oxabicyclo[4.1.0]hept-3-en-3-yl)-2-methoxybenzamide] | – |
